Here are results for 34 molecules from patent US9145392B2, “Imidazole amines as modulators of kinase activity” (Merck Patent GmbH, priority 2011, dated 2015).

For one experiment, the target named is P70S6K (T412E mutant) (Homo sapiens (Human), UniProt P23443, T412E). The experiment in a line: P70S6K enzyme assay. To be noted: read-out: IC50 p70S6K. Format: biochemical. In outline: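 Phosphorylated product and substrate peptide separated by microfluidic capillary electrophoresis (Caliper LabChip 3000), product peaks resolving before substrate.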
Sequence of P70S6K (T412E mutant) (P23443 whole entry T412E): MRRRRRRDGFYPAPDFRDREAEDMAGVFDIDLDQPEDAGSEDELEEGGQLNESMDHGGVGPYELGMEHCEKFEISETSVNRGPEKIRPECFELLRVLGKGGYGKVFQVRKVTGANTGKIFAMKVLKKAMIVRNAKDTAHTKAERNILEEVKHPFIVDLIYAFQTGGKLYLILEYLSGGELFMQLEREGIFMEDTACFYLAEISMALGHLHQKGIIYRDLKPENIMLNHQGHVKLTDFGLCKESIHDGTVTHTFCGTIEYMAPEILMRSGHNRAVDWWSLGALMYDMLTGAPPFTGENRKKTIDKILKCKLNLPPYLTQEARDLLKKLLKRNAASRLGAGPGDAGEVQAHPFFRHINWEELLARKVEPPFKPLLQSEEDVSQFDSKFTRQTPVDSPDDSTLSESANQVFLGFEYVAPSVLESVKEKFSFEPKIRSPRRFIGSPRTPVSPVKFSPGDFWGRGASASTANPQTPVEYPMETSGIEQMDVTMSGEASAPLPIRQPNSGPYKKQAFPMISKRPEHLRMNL
The next experiment deals with His-AKT (Full Length) (Homo sapiens (Human), UniProt P31749). The experiment in a line: AKT enzyme assay. Format: biochemical. To be noted: read-out: IC50 AKT.
Sequence of His-AKT (Full Length) (P31749 whole entry): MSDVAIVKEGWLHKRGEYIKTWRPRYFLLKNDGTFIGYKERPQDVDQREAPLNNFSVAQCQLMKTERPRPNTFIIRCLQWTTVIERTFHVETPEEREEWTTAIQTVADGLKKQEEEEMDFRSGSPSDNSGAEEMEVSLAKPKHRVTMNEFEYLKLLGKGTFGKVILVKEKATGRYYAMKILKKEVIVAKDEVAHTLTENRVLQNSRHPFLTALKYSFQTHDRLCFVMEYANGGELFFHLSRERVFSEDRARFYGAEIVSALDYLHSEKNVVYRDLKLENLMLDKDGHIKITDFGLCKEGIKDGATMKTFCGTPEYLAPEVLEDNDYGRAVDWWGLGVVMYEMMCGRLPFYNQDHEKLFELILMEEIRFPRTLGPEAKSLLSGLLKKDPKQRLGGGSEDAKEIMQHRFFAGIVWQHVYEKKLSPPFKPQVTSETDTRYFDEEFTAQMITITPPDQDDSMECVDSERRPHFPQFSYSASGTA

`CNCCn1cc(-c2ccc(F)c(C(F)(F)F)c2)nc1C1CCN(c2ncnc(N)c2C(N)=O)CC1` [Compound 376, 4-Amino-6-{4-[4-(4-fluoro-3-trifluoromethyl-phenyl)-1-(2-methylamino-ethyl)-1H-imidazol-2-yl]-piperidin-1-yl}-pyrimidine-5-carboxylic acid amide]: the half-inhibitory concentration (IC50) (in general, the concentration that gives 50% inhibition) was found to be 3.4 nM at P70S6K (T412E mutant) and 33 nM on His-AKT (Full Length).

In the case of `Cn1cc(-c2ccc(F)c(C(F)(F)F)c2)nc1C1CCN(c2ncnc(N)c2-c2ccc(C#N)cc2)CC1` [Compound 17, 4-(4-Amino-6-{4-[4-(4-fluoro-3-trifluoromethyl-phenyl)-1-methyl-1H-imidazol-2-yl]-piperidin-1-yl}-pyrimidin-5-yl)-benzonitrile], the half-maximal inhibitory concentration (IC50) at P70S6K (T412E mutant) and on His-AKT (Full Length) was 2.7 nM each time.

Turning to `N#Cc1c(N)ncnc1N1CCC(c2nc(-c3ccsc3)cn2CCN2CCC2)CC1` [Compound 130, 4-amino-6-(4-(1-(2-(azetidin-1-yl)ethyl)-4-(thiophen-3-yl)-1H-imidazol-2-yl)piperidin-1-yl)pyrimidine-5-carbonitrile], the IC50 on P70S6K (T412E mutant) was determined as 2.6 nM; at His-AKT (Full Length), 91 nM.

For the molecule `Nc1cc(N2CCC(c3nc(-c4ccc(F)c(C(F)(F)F)c4)cn3CCN3CCC3)CC2)ncn1` [Compound 221], the half-maximal inhibitory concentration (IC50) at P70S6K (T412E mutant) worked out at 21 nM; on His-AKT (Full Length) it was 71 nM.

Consider `NC(=O)c1c(N)ncnc1N1CCC(c2nc(-c3ccsc3)cn2CCN2CCC2)CC1` [Compound 134, 4-amino-6-(4-(1-(2-(azetidin-1-yl)ethyl)-4-(thiophen-3-yl)-1H-imidazol-2-yl)piperidin-1-yl)pyrimidine-5-carboxamide], for which the IC50 on P70S6K (T412E mutant) came to 6 nM; at His-AKT (Full Length) it was 1900 nM.

On to `Cc1ccc(-c2c(N)ncnc2N2CCC(c3nc(-c4ccc(F)c(C(F)(F)F)c4)cn3C)CC2)s1` [Compound 20, 6-{4-[4-(4-Fluoro-3-trifluoromethyl-phenyl)-1-methyl-1H-imidazol-2-yl]-piperidin-1-yl}-5-(5-methyl-thiophen-2-yl)-pyrimidin-4-ylamine], for which the values for the IC50 at P70S6K (T412E mutant) and at His-AKT (Full Length) were 7.1 nM and 2700 nM, respectively.

In the case of `Cn1cc(-c2ccc(F)c(C(F)(F)F)c2)nc1C1CCN(c2ncnc(N)c2C#N)CC1` [Compound 7, 4-Amino-6-{4-[4-(4-fluoro-3-trifluoromethyl-phenyl)-1-methyl-1H-imidazol-2-yl]-piperidin-1-yl}-pyrimidine-5-carbonitrile], the IC50 was 1.5 nM at P70S6K (T412E mutant) and 110 nM at His-AKT (Full Length).

Consider `CCc1c(N)ncnc1N1CCC(c2nc(-c3ccnc(C(C)C)c3)cn2CCN2CCC2)CC1` [Compound 179, 6-(4-(1-(2-(azetidin-1-yl)ethyl)-4-(2-isopropylpyridin-4-yl)-1H-imidazol-2-yl)piperidin-1-yl)-5-ethylpyrimidin-4-amine], for which the IC50 on P70S6K (T412E mutant) is 1.9 nM; at His-AKT (Full Length) it was 4.2 nM.

As for `C=Cc1c(N)ncnc1N1CCC(c2nc(-c3cccc(F)c3)cn2CCN2CCCC2)CC1` [Compound 240], the half-maximal inhibitory concentration (IC50) is 0.9 nM at P70S6K (T412E mutant) and 21 nM on His-AKT (Full Length).

As to `C=C(C)c1c(N)ncnc1N1CCC(c2nc(-c3ccc(F)c(C(F)(F)F)c3)cn2CCN2CCCC2)CC1` [Compound 213], the IC50 turned out to be 7.9 nM at P70S6K (T412E mutant) and 20 nM at His-AKT (Full Length).

On to `Cc1cc(-c2cn(CCN(C)C)c(C3CCN(c4ncnc(N)c4C(N)=O)CC3)n2)ccc1F` [Compound 348], for which the results for the concentration for half-maximal inhibition (IC50) at P70S6K (T412E mutant) and at His-AKT (Full Length) were 4 nM and 32 nM, respectively.

Take `CNCCn1cc(-c2ccnc(C(F)(F)F)c2)nc1C1CCN(c2ncnc(N)c2Cl)CC1` [Compound 172, 5-chloro-6-(4-(1-(2-(methylamino)ethyl)-4-(2-(trifluoromethyl)pyridin-4-yl)-1H-imidazol-2-yl)piperidin-1-yl)pyrimidin-4-amine]: the IC50 came out at 2 nM at P70S6K (T412E mutant) and 1.4 nM at His-AKT (Full Length).

For the molecule `CNCCn1cc(-c2ccc(F)c(C)c2)nc1C1CCN(c2ncnc(N)c2C(N)=O)CC1` [Compound 397, 4-Amino-6-{4-[4-(4-fluoro-3-methyl-phenyl)-1-(2-methylamino-ethyl)-1H-imidazol-2-yl]-piperidin-1-yl}-pyrimidine-5-carboxylic acid amide], the half-maximal inhibitory concentration (IC50) at P70S6K (T412E mutant) is 2.5 nM; at His-AKT (Full Length) it was 16 nM.

For the molecule `CCc1c(N)ncnc1N1CCC(c2nc(-c3ccnc(OC)c3)cn2CCN2CCC2)CC1` [Compound 112, 6-(4-(1-(2-(azetidin-1-yl)ethyl)-4-(2-methoxypyridin-4-yl)-1H-imidazol-2-yl)piperidin-1-yl)-5-ethylpyrimidin-4-amine], the IC50 on P70S6K (T412E mutant) was 64.5 nM; on His-AKT (Full Length), 940 nM.

With `CCc1c(N)ncnc1N1CCC(c2nc(-c3cccc(F)c3)cn2CCN2CCCC2)CC1` [Compound 231], the IC50 stood at 3.6 nM on P70S6K (T412E mutant) and 46 nM at His-AKT (Full Length).

Regarding `N#Cc1c(N)ncnc1N1CCC(c2nc(-c3ccc(F)c(C(F)(F)F)c3)cn2C2CCNC2)CC1` (centres unmarked) [Compound 137, 4-amino-6-(4-(4-(4-fluoro-3-(trifluoromethyl)phenyl)-1-(pyrrolidin-3-yl)-1H-imidazol-2-yl)piperidin-1-yl)pyrimidine-5-carbonitrile], the IC50 at P70S6K (T412E mutant) stood at 2.7 nM; on His-AKT (Full Length), 11 nM.

On to `CC(C)(C)c1cc(-c2cn(CCN3CCC3)c(C3CCN(c4ncnc(N)c4C(N)=O)CC3)n2)ccn1` [Compound 343], for which the IC50 on P70S6K (T412E mutant) amounted to 5.5 nM; at His-AKT (Full Length), 170 nM.

Take `CN(C)CCn1cc(-c2ccc(F)c(C(F)(F)F)c2)nc1C1CCN(c2ncnc(N)c2C2CC2)CC1` [Compound 91, 5-Cyclopropyl-6-(4-(1-(2-(dimethylamino)ethyl)-4-(4-fluoro-3-(trifluoromethyl)phenyl)-1H-imidazol-2-yl)piperidin-1-yl)pyrimidin-4-amine]: the results for the half-maximal inhibitory concentration (IC50) on P70S6K (T412E mutant) and at His-AKT (Full Length) were 3.2 nM and 4.8 nM, respectively.

For `CCO/C=C/c1c(N)ncnc1N1CCC(c2nc(-c3ccc(F)c(C(F)(F)F)c3)cn2CCN(C)C)CC1` [Compound 86, (E)-6-(4-(1-(2-(Dimethylamino)ethyl)-4-(4-fluoro-3-(trifluoromethyl)phenyl)-1H-imidazol-2-yl)piperidin-1-yl)-5-(2-ethoxyvinyl)pyrimidin-4-amine], the concentration for half-maximal inhibition (IC50) at P70S6K (T412E mutant) was determined as 1.9 nM; at His-AKT (Full Length), 4 nM.

As to `NC(=O)c1c(N)ncnc1N1CCC(c2nc(-c3cnoc3)cn2CCN2CCC2)CC1` [Compound 135, 4-amino-6-(4-(1-(2-(azetidin-1-yl)ethyl)-4-(isoxazol-4-yl)-1H-imidazol-2-yl)piperidin-1-yl)pyrimidine-5-carboxamide], the half-inhibitory concentration (IC50) on P70S6K (T412E mutant) stood at 860 nM; at His-AKT (Full Length) it was 760 nM.

With `CCc1c(N)ncnc1N1CCC(c2nc(-c3ccc(C(F)(F)F)c(F)c3)cn2CCN2CCCC(F)(F)C2)CC1` [Compound 248], the figures for the IC50 at P70S6K (T412E mutant) and on His-AKT (Full Length) were 16 nM and 1000 nM, respectively.

In the case of `CCOc1c(N)ncnc1N1CCC(c2nc(-c3ccc(F)c(C)c3)cn2CCN(CC)CC)CC1` [Compound 303], the values for the IC50 on P70S6K (T412E mutant) and on His-AKT (Full Length) were 2.4 nM and 0.8 nM, respectively.

Consider `Cc1cc(-c2cn(CCO)c(C3CCN(c4ncnc(N)c4C#N)CC3)n2)ccc1F` [Compound 384, 4-Amino-6-{4-[4-(4-fluoro-3-methyl-phenyl)-1-(2-hydroxy-ethyl)-1H-imidazol-2-yl]-piperidin-1-yl}-pyrimidine-5-carbonitrile], for which the IC50 at P70S6K (T412E mutant) is 1.8 nM; on His-AKT (Full Length), 440 nM.

For the molecule `CCc1c(N)ncnc1N1CCC(c2nc(-c3ccc(F)c(C(F)(F)F)c3)cn2C[C@@H]2CCN2)CC1` [Compound 152, (S)-6-(4-(1-(azetidin-2-ylmethyl)-4-(4-fluoro-3-(trifluoromethyl)phenyl)-1H-imidazol-2-yl)piperidin-1-yl)-5-ethylpyrimidin-4-amine], the results for the half-maximal inhibitory concentration (IC50) at P70S6K (T412E mutant) and on His-AKT (Full Length) were 5.2 nM and 280 nM, respectively.

Consider `CC(=O)Nc1c(N)ncnc1N1CCC(c2nc(-c3ccc(F)c(C(F)(F)F)c3)cn2CCN2CCC2)CC1` [Compound 288], for which the figures for the half-inhibitory concentration (IC50) at P70S6K (T412E mutant) and at His-AKT (Full Length) were 21 nM and 190 nM, respectively.

Consider `CCc1c(N)ncnc1N1CCC(c2nc(-c3ccc(F)c(C(F)(F)F)c3)cn2CCN2CCC2)CC1` [Compound 230], for which the concentration for half-maximal inhibition (IC50) at P70S6K (T412E mutant) is 2.1 nM; at His-AKT (Full Length), 4.1 nM.

Turning to `Nc1ncnc(N2CCC(c3nc(-c4cccc(F)c4)cn3CCN3CCCC3)CC2)c1Cl` [Compound 236], the IC50 on P70S6K (T412E mutant) is 0.5 nM; on His-AKT (Full Length) it was 8.1 nM.

Take `CCc1c(N)ncnc1N1CCC(c2nc(-c3ccc(F)c(C)c3)cn2CCN(C)C)CC1` [Compound 295]: the 50% inhibitory concentration (IC50) at P70S6K (T412E mutant) was determined as 4.1 nM; at His-AKT (Full Length), 23 nM.

For `Cn1cc(-c2ccc(F)c(C(F)(F)F)c2)nc1C1CCN(c2ncncc2Br)CC1` [Compound 41, 5-Bromo-4-{4-[4-(4-fluoro-3-trifluoromethyl-phenyl)-1-methyl-1H-imidazol-2-yl]-piperidin-1-yl}-pyrimidine], the IC50 on P70S6K (T412E mutant) worked out at 3 nM; on His-AKT (Full Length), 1400 nM.

Regarding `CC(C)c1cc(-c2cn(CCN3CCC3)c(C3CCN(c4ncnc(N)c4C#N)CC3)n2)ccn1` [Compound 317], the IC50 on P70S6K (T412E mutant) was 1.7 nM; on His-AKT (Full Length), 11 nM.

Regarding `Nc1ncnc(N2CCC(c3nc(-c4ccc(F)c(C(F)(F)F)c4)cn3CCN3CCCCC3)CC2)c1-c1ccccc1F` [Compound 63], the IC50 was determined as 5.1 nM on P70S6K (T412E mutant) and 130 nM on His-AKT (Full Length).

Consider `Cc1ccc(-c2cn(CCN3CCC3)c(C3CCN(c4ncnc(N)c4C#N)CC3)n2)cc1F` [Compound 320], for which the IC50 at P70S6K (T412E mutant) is 1.6 nM; on His-AKT (Full Length), 48 nM.

For the molecule `Nc1ncnc(N2CCC(c3nc(-c4ccc(C(F)(F)F)c(F)c4)cn3CCN3CCCC3)CC2)c1Br` [Compound 229], the 50% inhibitory concentration (IC50) turned out to be 6.3 nM on P70S6K (T412E mutant) and 71 nM at His-AKT (Full Length).

As for `Nc1ncnc(N2CCC(c3nc(-c4ccnc(C(F)(F)F)c4)cn3CCN3CCC3)CC2)c1-c1cnoc1` [Compound 168, 6-(4-(1-(2-(azetidin-1-yl)ethyl)-4-(2-(trifluoromethyl)pyridin-4-yl)-1H-imidazol-2-yl)piperidin-1-yl)-5-(isoxazol-4-yl)pyrimidin-4-amine], the concentration for half-maximal inhibition (IC50) at P70S6K (T412E mutant) is 2.9 nM; on His-AKT (Full Length), 2.7 nM.
